Test results as given in US20030114393A1 (priority 1999, published 2003).
Like-named read-outs stand apart in the source and are kept apart here.

Legend:
MCF-7-AdrR cells [1] = assay: TMR (tetramethylrosamine chloride) accumulation, in vitro drug uptake model; assay type: cell-based, human; details: for EC50: Homo sapiens, 0.5 h, read-out: concentration half maximally effective on TMR accumulation; for maximal stimulation of TMR accumulation / effect on TMR accumulation: MCF-7-AdrR cells; for maximal stimulation of TMR accumulation: 10 μM TMR, 30 minutes at 37° C., relative to TMR alone; for effect on TMR accumulation: FIG. 1A/1B
Experimental: The effect of steroidal alkaloids on drug transport was examined by measuring cellular accumulation of TMR, a fluorescent model drug, according to Eytan et al. (Eytan, G. D. et al., Eur. J. Biochem. 248: 104-112, 1997) with some modifications. Cells were seeded in 24-well tissue culture plates at a density of 0.5×10^5 cells/well and were grown for 24 h in growth medium supplemented with 0.5% FCS. TMR (diluted from a 10 mM stock in DMSO) was added to the cells at a final concentration of 10 μM, in 0.5 ml of growth medium in the presence or absence of the tested alkaloids (given prior to the dye as indicated). Cells were incubated with TMR and the tested drug for 30 minutes at 37° C. To terminate the assay, the plates were placed on ice and the cells were washed three times with ice-cold phosphate-buffered saline (PBS) in order to remove residual TMR. The cells were then lysed by incubation with 0.5 ml of 0.5 N NaOH for 20 minutes at room temperature, and the lysates were neutralized with 0.5 ml of 0.5 N HCl and collected. Cell-associated TMR was determined by measuring the fluorescence intensity of the lysates using a fluorescence spectrophotometer (excitation at 555-nm, emission at 575-nm). Blank values obtained at zero time were subtracted from all the fluorescence values and the results were normalized to the amount of cellular protein in each well. Experiments were carried out in triplicates and were repeated at least twice. Results are expressed as a percentage of incubations with TMR alone.
Expression of multidrug transporters markedly decreases drug accumulation in MDR cells. Conversely, in such cells drug accumulation is increased by inhibition of P-gp and related proteins with MDR reversal agents. TMR accumulation was utilized to examine the effect of steroidal alkaloids on P.gp in MCF-7-AdrR adriamycin-resistant human breast adenocarcinoma cells.

MCF-7-AdrR cells [2] = assay: cells; details: for reduction of cell viability by adriamycin in the presence of the steroidal alkaloid: 10 μM alkaloid fixed, increasing adriamycin up to 10 μM, compared with drug-free incubations; for EC50: Homo sapiens, read-out: EC50 of sensitization of the cells to adriamycin; for reduction of cell survival by the steroidal alkaloid alone: alkaloid alone (10 μM), MCF-7-AdrR, MTT
Experimental: Cells were plated in 96-well plates at a density of 4×10^3 cells/well in 0.1 ml drug-free DMEM containing 5% fetal calf serum, and incubated at 37° C. for 48 h. After this time, cytotoxic drugs (adriamycin or vinblastine) were added to the wells at the indicated concentrations, in the absence or presence of the tested steroidal alkaloids, and the cells were further incubated for an additional 48-72 h. The cytotoxic activity of the drugs was then determined using a standard MTT cell survival assay (Hansen, M. B. et al., J. Immunol. Meth 119: 203-210. The […] reagent (diluted from a 5 mg/ml solution in PBS) was added to all the wells at a final concentration of 0.6 mg/ml and the cells were further incubated at 37° C. for 2 or 3 h. The reaction was terminated by adding 100 μl/well of an extraction solution consisting of 20% (w/v) sodium dodecyl sulfate (SDS) in 50% aqueous dimethyl formamide solution, pH 4.8. The plates were left overnight at room temperature in the dark, following which the absorbance was read at 570-nm using an ELISA plate reader. […] Data points represent the mean±S.D. of a quadruplicate determination from a representative experiment that was repeated at least twice. The results are expressed as a percentage of control, drug-free wells.
The cytotoxic effect of the drugs was evaluated by utilizing the MTT cell viability assay, a standard assay for assessing drug resistance and its reversal. Routinely, MCF-7-AdrR cells were exposed to increasing concentrations of drugs for 48 h and the number of viable cells was quantitated after adding the MTT reagent.

[3] = literature (Keeler, 1978; Gaffield and Keeler, 1996); cited from earlier work
[4] = 10 μM tested compound, increasing vinblastine, 48 h, FIG. 5

CC1=C2C[C@H]3[C@@H](CC=C4C[C@@H](O)CC[C@@]43C)[C@@H]2CC[C@]12O[C@@H]1C[C@H](C)CN[C@H]1[C@H]2C [cyclopamine]
EC50 (MCF-7-AdrR cells [1]): ~1000 nM | maximal stimulation of TMR accumulation (MCF-7-AdrR cells [1]): 2 fold | effect on TMR accumulation (MCF-7-AdrR cells [1]): concentration-dependent increase | reduction of cell viability by adriamycin in the presence of the steroidal alkaloid (MCF-7-AdrR cells [2]; 48 h): ~90% | EC50 (MCF-7-AdrR cells [2]; 48 h): 2500 nM | reduction of cell survival by the steroidal alkaloid alone (MCF-7-AdrR cells [2]; 48 h): 10-20% | teratogenic activity [3]: potent teratogen

COc1ccc(CCN(C)CCCC(C#N)(c2ccc(OC)c(OC)c2)C(C)C)cc1OC (stereo not drawn) [verapamil, reference compound]
effect on TMR accumulation (MCF-7-AdrR cells [1]): back to near normal levels | effect on drug (adriamycin) sensitivity of MCF-7-AdrR cells (MCF-7-AdrR cells [2]; preliminary experiments, data not shown): markedly increase their drug sensitivity

Cc1c([C@H](C)[C@@H]2NC[C@@H](C)C[C@H]2O)ccc2c1C[C@H]1[C@H]2CC=C2C[C@@H](O)CC[C@@]21C [veratramine]
sensitization to vinblastine (MCF-7-AdrR cells [2]; 1 μM veratramine, increasing vinblastine, 48 h, FIG. 5): sensitize

CC1=C2C(=O)[C@H]3[C@@H](CC=C4C[C@@H](O)CC[C@@]43C)[C@@H]2CC[C@]12O[C@@H]1C[C@H](C)CN[C@H]1[C@H]2C [jervine]
sensitization to vinblastine: shift of concentration-response curve to the left (MCF-7-AdrR cells [2]; [4]): most effective

C[C@H]1CC[C@]2(NC1)O[C@H]1C[C@H]3[C@@H]4CC[C@H]5C[C@@H](O)CC[C@]5(C)[C@H]4CC[C@]3(C)[C@H]1[C@@H]2C [tomatidine]
EC50 (MCF-7-AdrR cells [1]): ~1000 nM | maximal stimulation of TMR accumulation (MCF-7-AdrR cells [1]): 2.5 fold | effect on TMR accumulation (MCF-7-AdrR cells [1]): concentration-dependent increase | reduction of cell viability by adriamycin in the presence of the steroidal alkaloid (MCF-7-AdrR cells [2]; 48 h): more than 90% | EC50 (MCF-7-AdrR cells [2]; 48 h): 5000 nM | reduction of cell survival by the steroidal alkaloid alone (MCF-7-AdrR cells [2]; 48 h): modest cytotoxic activity of its own | reduction of cell survival by the steroidal alkaloid alone (MCF-7-AdrR cells [2]; 48 h, listed as Tomatidine): 20-25% | teratogenic activity [3]: no teratogenic activity

C[C@@H]1CN[C@H]2[C@@H](C)[C@@]3(CC[C@H]4[C@@H]5CC[C@H]6C[C@@H](O)CC[C@]6(C)[C@H]5C(=O)[C@@H]4[C@H]3C)O[C@@H]2C1 [tetrahydrojervine]
sensitization to vinblastine: shift of concentration-response curve to the left (MCF-7-AdrR cells [2]; [4]): most effective

cyclopamine-4en-3-one [cylopamine4-en-3-one]
sensitization to vinblastine: shift of concentration-response curve to the left (MCF-7-AdrR cells [2]): most effective
